Where two headings read alike, the source gives them in different places.
Legend:
[1] = system: TZM-bl cell line; type: cell-based; settings: human, 1 μM
Procedure: (§1) In particular, the tables show antiretroviral activity as percent inhibition of HIV-1 infectivity at 1 μM. In brief, this assay uses the TZM-bl reporter cell line, which carries a stable copy of the HIV-1 LTR coupled to luciferase. Cells are infected with HIV-1NL4-3 in the presence and absence of each compound, and luciferase activity is measured 48 h later. This assay measures early events in the HIV-1 life cycle, including viral entry, reverse transcription, nuclear entry and integration, and viral transcription. All assays include control cells infected with Nef-defective HIV-1, which replicates at 30-50% of wild-type in this system. Results are normalized to percent inhibition relative to DMSO-treated control cells infected with wild-type HIV-1 (0% inhibition) and DMSO-treated cells infected with Nef-defective HIV-1 (100% of the Nef-dependent effect)—see column 3. In addition, cell viability is measured in the TZM-bl cell line in the presence of each test compound and in the absence of HIV-1 infection, using the Cell Titer Blue cell viability assay (Promega; column 4).

[2] = biological target: HIV-1 NefNL4-3 (Human immunodeficiency virus type 1 group M subtype B, UniProt P03406, A33V/T15A/T51N/V11I); test: Surface plasmon resonance binding to recombinant full-length Nef (NL4-3); settings: for RU30/RUNef (extent of binding): response units at 30 μM relative to Nef immobilized on the SPR chip
[3] = system: HIV-1NL4-3; test: HIV-1 infectivity assay in TZM-bl reporter cell line (LTR-luciferase, 48 h); type: cell-based; settings: Human immunodeficiency virus 1, TZM-bl
Procedure: as §1

[4] = KD, M, Table 4, SPR fit 2-step induced fit, KD = koff/kon × koff2/(koff2 + kon2)
[5] = Nef NL4-3 Binding, SPR 2-state fitting KD, Table 1, 2-step induced-fit model
[6] = Table 4, 2-step induced fit, T = 1/koff2
[7] = 1.0 μM, TZM-bl reporter cell line, Table 4, read-out: % Infectivity Inhibition
[8] = 48 h, Table 1, TZM-bl cells, 1 μM, 48 h, 100% = Nef-defective HIV-1, read-out: HIV-1 Infectivity % Inhibition Norm. to Δ-Nef @ 1 μM
[9] = KD, M, Table 4, SPR fit 1:1 Langmuir, KD = koff/kon
[10] = Table 4, 1:1 Langmuir fit, T = 1/koff

| Structure (SMILES) | % Cell Viability [1] [%] | Percent Viability @ 1 μM (TZM-bl cells) [1] [%] | Kd [2] [nM] | Kd [2, 4] [nM] | Kd [2, 5] [nM] | T, minutes (residence time) [2, 6] | RU30/RUNef (extent of binding) [2] | inhibition at 1 µM [3, 7] [%] | inhibition at 1 µM [3, 8] [%] | Kd ([2]; read-out: Nef NL4-3 Binding, SPR 1:1 or 2-site fitting KD2, Table 1, 2-site fit, second component) [nM] | Kd [2, 9] [nM] | T, minutes (residence time) [2, 10] | Nef NL4-3 Binding, SPR 1:1 or 2-site fitting KD1 ([2]; Table 1, 1:1 Langmuir fit where the KD2 cell says '1 to 1 fitting', else 2-site fit) | Kd ([2]; Nef NL4-3 Binding, SPR 1:1 or 2-site fitting KD2, Table 1, 2-site fit, second component) [nM] |
| --- | --- | --- | --- | --- | --- | --- | --- | --- | --- | --- | --- | --- | --- | --- |
| Oc1c(CCc2ccc(F)cc2)c(-c2ccc(C(F)(F)F)nc2)nn1-c1nc2ccccc2[nH]1 [Compound I-135, 1-(1H-1,3-benzodiazol-2-yl)-4-[2-(4-fluorophenyl)ethyl]-3-[6-(trifluoromethyl)pyridin-3-yl]-1H-pyrazol-5-ol] | 91.9 | 91.9 | 636 | 14.7 | 14.7 | 1.47E + 03 minutes | 2.87E- 03 | 35.7 | 35.7 | – | – | – | – | – |
| Oc1c(CCc2ccc(F)cc2)c(C2CCCO2)nn1-c1nc2ccccc2[nH]1 (stereo not drawn) [Compound I-136, 1-(1H-1,3-benzodiazol-2-yl)-4-[2-(4-fluorophenyl)ethyl]-3-(oxolan-2-yl)-1H-pyrazol-5-ol] | 99.9 | 99.9 | 160 | 2460 | 2460 | 3.32E + 00 minutes | 5.11E- 03 | 26.5 | 26.5 | 4770 | – | – | – | – |
| Cn1cccc(CCc2c(-c3ccc(C(F)(F)F)cc3)nn(-c3nc4ccccc4[nH]3)c2O)c1=O [Compound I-137, 3-{2-[1-(1H-1,3-benzodiazol-2-yl)-5-hydroxy-3-[4-(trifluoromethyl)phenyl]-1H-pyrazol-4-yl]ethyl}-1-methyl-1,2-dihydropyridin-2-one] | 99.4 | 99.4 | 243 | – | – | – | 1.02E- 03 | 0 | -1.4 | – | 243 | 5.36E + 00 minutes | – | – |
| COc1cccc(-c2nn(-c3nc4ccccc4[nH]3)c(O)c2CCc2ccc(F)cc2)n1 [Compound I-138, 1-(1H-1,3-benzodiazol-2-yl)-4-[2-(4-fluorophenyl)ethyl]-3-(6-methoxypyridin-2-yl)-1H-pyrazol-5-ol] | – | 95.8 | 3960 | – | – | – | – | – | 48.2 | – | – | – | – | – |
| Oc1c(CCC2CCOCC2)c(-c2ccc(C(F)(F)F)cc2)nn1-c1nc2ccccc2[nH]1 [Compound I-139, 1-(1H-1,3-benzodiazol-2-yl)-4-[2-(oxan-4-yl)ethyl]-3-[4-(trifluoromethyl)phenyl]-1H-pyrazol-5-ol] | 80.8 | 80.8 | 556 | 2070 | 2070 | 1.77E + 01 minutes | 3.41E- 03 | 44.1 | 44.1 | – | – | – | – | – |
| Cc1ccc(-c2nn(-c3nc4ccccc4[nH]3)c(O)c2CCc2ccc(F)cc2)cn1 [Compound I-140, 1-(1H-1,3-benzodiazol-2-yl)-4-[2-(4-fluorophenyl)ethyl]-3-(6-methylpyridin-3-yl)-1H-pyrazol-5-ol] | – | 98.3 | 915 | – | – | – | – | – | 57.3 | – | – | – | – | – |
| Oc1c(CCn2nccn2)c(-c2ccc(C(F)(F)F)cc2)nn1-c1nc2ccccc2[nH]1 [Compound I-141, 1-(1H-1,3-benzodiazol-2-yl)-4-[2-(2H-1,2,3-triazol-2-yl)ethyl]-3-[4-(trifluoromethyl)phenyl]-1H-pyrazol-5-ol] | – | 99.5 | – | – | – | – | – | – | 8.7 | – | – | – | No Interaction | – |
| Cc1nccn1CCc1c(-c2ccc(C(F)(F)F)cc2)nn(-c2nc3ccccc3[nH]2)c1O [Compound I-142, 1-(1H-1,3-benzodiazol-2-yl)-4-[2-(2-methyl-1H-imidazol-1-yl)ethyl]-3-[4-(trifluoromethyl)phenyl]-1H-pyrazol-5-ol] | – | 100.2 | 32800 | – | – | – | – | – | -7.8 | – | – | – | – | – |
| Oc1c(CCn2cc(Cl)cn2)c(-c2ccc(C(F)(F)F)cc2)nn1-c1nc2ccccc2[nH]1 [Compound I-143, 1-(1H-1,3-benzodiazol-2-yl)-4-[2-(4-chloro-1H-pyrazol-1-yl)ethyl]-3-[4-(trifluoromethyl)phenyl]-1H-pyrazol-5-ol] | 98.9 | 98.9 | 426 | – | – | – | 1.02E- 03 | 0 | -19.6 | – | 426 | 1.75E + 01 minutes | – | – |
| Oc1c(CCc2ccccn2)c(-c2ccc(C(F)(F)F)cn2)nn1-c1nc2ccccc2[nH]1 [Compound I-146, 1-(1H-1,3-benzodiazol-2-yl)-4-[2-(pyridin-2-yl)ethyl]-3-[5-(trifluoromethyl)pyridin-2-yl]-1H-pyrazol-5-ol] | 98.5 | 98.5 | 1650 | – | – | – | 6.42E- 04 | 5.7 | 5.7 | – | 1650 | 3.67E + 00 minutes | – | – |
| Oc1c(CCc2ccc(Br)cc2)c(-c2ccc(C(F)(F)F)cn2)nn1-c1nc2ccccc2[nH]1 [Compound I-147, 1-(1H-1,3-benzodiazol-2-yl)-4-[2-(4-bromophenyl)ethyl]-3-[5-(trifluoromethyl)pyridin-2-yl]-1H-pyrazol-5-ol] | 97.6 | 97.6 | 0.0752 | – | – | – | 2.11E- 03 | 59.3 | 59.3 | – | 0.0752 | 4.30E + 04 minutes | – | – |
| CS(=O)(=O)c1ccc(-c2nn(-c3nc4ccccc4[nH]3)c(O)c2CCC2CCOCC2)cc1 [Compound I-149, 1-(1H-1,3-benzodiazol-2-yl)-3-(4-methanesulfonylphenyl)-4-[2-(oxan-4-yl)ethyl]-1H-pyrazol-5-ol] | – | 98.5 | 2330 | – | – | – | – | – | 54.5 | – | – | – | – | – |
| Oc1c(CCC2CCOCC2)c(-c2cccc(F)c2)nn1-c1nc2ccccc2[nH]1 [Compound I-150, 1-(1H-1,3-benzodiazol-2-yl)-3-(3-fluorophenyl)-4-[2-(oxan-4-yl)ethyl]-1H-pyrazol-5-ol] | 77.7 | 77.7 | – | 1070 | 1070 | 9.69E + 00 minutes | 4.75E- 03 | 53.9 | 53.9 | – | – | – | – | 10400 |
| OCCc1c(-c2ccc(C(F)(F)F)cc2)nn(-c2nc3ccccc3[nH]2)c1O [Compound I-153, 1-(1H-1,3-benzodiazol-2-yl)-4-(2-hydroxyethyl)-3-[4-(trifluoromethyl)phenyl]-1H-pyrazol-5-ol] | 99.9 | 99.9 | 68.8 | – | – | – | 9.06E- 04 | 0 | -20.1 | – | 68.8 | 9.31E + 00 minutes | – | – |
| CS(=O)(=O)c1ccc(-c2nn(-c3nc4ccccc4[nH]3)c(O)c2CCC2CCN(CC(F)(F)F)CC2)cc1 [Compound I-154, 1-(1H-1,3-benzodiazol-2-yl)-3-(4-methanesulfonylphenyl)-4-{2-[1-(2,2,2-trifluoroethyl)piperidin-4-yl]ethyl}-1H-pyrazol-5-ol] | 69.3 | 69.3 | 28800 | – | – | – | 4.50E- 03 | 45.4 | 45.4 | – | 28800 | 6.80E + 00 minutes | – | – |
| O=C1CN(Cc2nn(-c3nc4ccccc4[nH]3)c(O)c2CCc2ccc(F)cc2)CCN1c1ccccc1 [Compound I-155, 4-{[1-(1H-1,3-benzodiazol-2-yl)-4-[2-(4-fluorophenyl)ethyl]-5-hydroxy-1H-pyrazol-3-yl]methyl}-1-phenylpiperazin-2-one] | – | 98.2 | 3400 | – | – | – | – | – | -5.9 | – | – | – | – | – |
| Cc1nn(-c2nc3ccccc3[nH]2)c(O)c1Cc1ccc(Cl)cc1F [Compound I-156, 1-(1H-1,3-benzodiazol-2-yl)-4-[(4-chloro-2-fluorophenyl)methyl]-3-methyl-1H-pyrazol-5-ol] | 100 | 101.5 | 8.56 | – | – | – | 3.62E- 03 | 15.4 | 15.4 | – | 8.56 | 7.34E + 02 minutes | – | – |

Reference: patent US20220380341A1, “INHIBITORS OF HIV-1 NEF FOR THE TREATMENT OF HIV DISEASE” (priority 2018, published 2022)
